Results published in publication PMC10281726 (Journal of Food and Drug Analysis, 2023).
pIC50: −log10 of the molar value.

Key:
Type in all cases: biochemical
MINK1 = MINK1 (Homo sapiens, UniProt Q8N4C8); assay: kinase panel; conditions: read-out: % inhibition at 3 μM
MKNK1 = MKNK1 (Homo sapiens, UniProt Q9BUB5); assay: kinase panel; conditions: read-out: % inhibition at 3 μM
[1] = target: dual-specific tyrosine phosphorylation-regulated kinase 1A (DYRK1A) (Homo sapiens, UniProt Q13627); assay: Z'-LYTE FRET-peptide kinase assay, dose response
STK3 = target: T1, STK3 (Homo sapiens, UniProt Q13188); assay: kinase panel; conditions: read-out: % inhibition at 3 μM
T1 sequence (Q13188 1-491): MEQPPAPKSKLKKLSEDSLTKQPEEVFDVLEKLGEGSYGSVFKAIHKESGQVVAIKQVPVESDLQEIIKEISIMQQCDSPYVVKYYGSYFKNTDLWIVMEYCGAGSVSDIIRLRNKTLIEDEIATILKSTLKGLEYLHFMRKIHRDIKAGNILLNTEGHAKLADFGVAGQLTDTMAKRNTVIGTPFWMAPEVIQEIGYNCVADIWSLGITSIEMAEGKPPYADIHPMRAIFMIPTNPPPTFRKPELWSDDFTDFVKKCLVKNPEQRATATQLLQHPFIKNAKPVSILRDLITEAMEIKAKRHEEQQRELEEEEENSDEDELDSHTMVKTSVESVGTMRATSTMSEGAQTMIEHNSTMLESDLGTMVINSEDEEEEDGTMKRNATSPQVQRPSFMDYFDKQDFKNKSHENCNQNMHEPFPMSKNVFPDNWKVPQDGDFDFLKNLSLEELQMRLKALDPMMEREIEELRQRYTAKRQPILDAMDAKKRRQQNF

VRK2 = VRK2 (Homo sapiens, UniProt Q86Y07); assay: kinase panel; conditions: read-out: % inhibition at 3 μM
VRK2, sequence (Q86Y07 whole entry): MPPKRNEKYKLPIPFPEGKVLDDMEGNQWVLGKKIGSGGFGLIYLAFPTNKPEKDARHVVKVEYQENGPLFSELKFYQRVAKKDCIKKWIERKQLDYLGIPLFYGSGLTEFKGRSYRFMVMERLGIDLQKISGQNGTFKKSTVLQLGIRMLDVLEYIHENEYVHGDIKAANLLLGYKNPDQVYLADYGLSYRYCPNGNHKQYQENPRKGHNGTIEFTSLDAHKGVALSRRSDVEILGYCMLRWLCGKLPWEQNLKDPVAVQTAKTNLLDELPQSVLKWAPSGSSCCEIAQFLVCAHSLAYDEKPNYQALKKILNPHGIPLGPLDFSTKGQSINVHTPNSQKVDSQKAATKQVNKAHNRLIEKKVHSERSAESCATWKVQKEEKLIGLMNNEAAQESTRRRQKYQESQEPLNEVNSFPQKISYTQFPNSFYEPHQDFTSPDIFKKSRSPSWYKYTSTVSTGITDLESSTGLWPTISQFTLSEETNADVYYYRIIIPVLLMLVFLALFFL

MKNK1, sequence (Q9BUB5 whole entry): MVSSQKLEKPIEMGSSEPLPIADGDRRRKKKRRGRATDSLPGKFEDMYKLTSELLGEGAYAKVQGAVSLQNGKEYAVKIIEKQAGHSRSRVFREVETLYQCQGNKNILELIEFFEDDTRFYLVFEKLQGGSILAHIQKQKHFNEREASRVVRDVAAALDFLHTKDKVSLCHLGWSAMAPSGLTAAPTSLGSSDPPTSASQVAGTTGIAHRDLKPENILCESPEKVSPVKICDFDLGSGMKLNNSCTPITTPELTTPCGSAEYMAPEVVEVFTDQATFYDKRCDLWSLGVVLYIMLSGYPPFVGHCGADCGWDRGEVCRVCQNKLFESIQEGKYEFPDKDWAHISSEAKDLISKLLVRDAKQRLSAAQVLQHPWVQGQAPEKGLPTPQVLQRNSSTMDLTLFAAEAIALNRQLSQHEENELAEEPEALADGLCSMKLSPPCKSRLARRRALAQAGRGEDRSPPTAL
MINK1, sequence (Q8N4C8 whole entry): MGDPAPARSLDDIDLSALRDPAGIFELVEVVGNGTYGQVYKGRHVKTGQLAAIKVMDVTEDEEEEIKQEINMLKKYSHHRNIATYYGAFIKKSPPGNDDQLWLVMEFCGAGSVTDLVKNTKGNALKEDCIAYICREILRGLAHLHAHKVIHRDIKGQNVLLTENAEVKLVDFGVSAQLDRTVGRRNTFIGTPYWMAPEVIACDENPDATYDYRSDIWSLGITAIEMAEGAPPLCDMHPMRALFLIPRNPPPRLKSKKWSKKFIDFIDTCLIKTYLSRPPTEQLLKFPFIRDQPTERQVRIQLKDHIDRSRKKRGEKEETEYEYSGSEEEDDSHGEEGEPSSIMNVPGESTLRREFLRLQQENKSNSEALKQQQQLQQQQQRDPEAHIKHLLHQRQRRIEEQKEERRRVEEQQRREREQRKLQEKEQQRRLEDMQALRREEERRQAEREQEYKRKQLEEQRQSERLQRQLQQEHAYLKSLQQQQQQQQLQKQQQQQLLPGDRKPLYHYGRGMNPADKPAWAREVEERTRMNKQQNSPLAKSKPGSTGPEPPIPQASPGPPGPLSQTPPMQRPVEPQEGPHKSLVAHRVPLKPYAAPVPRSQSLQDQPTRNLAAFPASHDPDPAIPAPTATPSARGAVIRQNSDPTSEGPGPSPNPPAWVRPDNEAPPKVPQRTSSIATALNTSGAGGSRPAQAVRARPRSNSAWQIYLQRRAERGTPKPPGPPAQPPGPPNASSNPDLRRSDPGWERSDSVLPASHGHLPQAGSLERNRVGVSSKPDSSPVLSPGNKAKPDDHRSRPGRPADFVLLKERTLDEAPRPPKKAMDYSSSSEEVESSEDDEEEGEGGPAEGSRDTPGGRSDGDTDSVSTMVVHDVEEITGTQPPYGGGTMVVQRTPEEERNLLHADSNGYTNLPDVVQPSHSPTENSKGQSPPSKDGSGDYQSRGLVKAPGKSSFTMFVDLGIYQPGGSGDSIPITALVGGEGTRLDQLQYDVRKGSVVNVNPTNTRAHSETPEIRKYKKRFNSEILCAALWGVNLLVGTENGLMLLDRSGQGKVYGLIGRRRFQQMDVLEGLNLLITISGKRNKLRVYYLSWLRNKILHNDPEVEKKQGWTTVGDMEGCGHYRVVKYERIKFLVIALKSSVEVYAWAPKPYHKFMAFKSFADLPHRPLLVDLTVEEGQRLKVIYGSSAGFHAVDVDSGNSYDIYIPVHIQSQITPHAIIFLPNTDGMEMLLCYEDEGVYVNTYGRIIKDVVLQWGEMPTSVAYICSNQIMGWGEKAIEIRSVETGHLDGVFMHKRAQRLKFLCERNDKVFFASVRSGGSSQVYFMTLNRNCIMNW

## O=c1oc2cc(O)ccc2c2ccc(O)cc12 [UA, Urolithin A]
MINK1
  inhibition at 3 µM: > 50%
MKNK1
  inhibition at 3 µM: > 50%
[1]
  pIC50: 6.04
STK3
  inhibition at 3 µM: > 50%
VRK2
  inhibition at 3 µM: > 50%
